Measured values published in patent publication US9302999B2, “Substituted triazoles as herbicides” (E. I. DU PONT DE NEMOURS AND COMPANY, priority 2012, dated 2016).

What was measured:
Type in all cases: in vivo
[1] = tested on: bromegrass, downy (downy bromegrass, Bromus tectorum); assay: Test D pre-/postemergence: bromegrass, downy
In short: (§1)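 Visual ratings from 0 (no effect) to 100 (complete control) were made 14–21 days after treatment, relative to controls. Applications were preemergence to seeds in silt loam, or postemergence to 2–18 cm (1–4 leaf) plants in peat-based medium. Compounds were formulated in a surfactant-containing non-phytotoxic solvent.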

[2] = tested on: pigweed (Amaranthus retroflexus); assay: Test D pre-/postemergence: pigweed
In short: as §1

[3] = tested on: buckwheat, wild (wild buckwheat, Polygonum convolvulus); assay: Test D pre-/postemergence: buckwheat, wild
In short: as §1

[4] = tested on: wheat, winter (winter wheat, Triticum aestivum); assay: Test D pre-/postemergence: wheat, winter
In short: as §1

[5] = tested on: foxtail, giant (giant foxtail, Setaria faberii); assay: Test F pre-/postemergence: foxtail, giant; settings: Preemergence
In short: (§2)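 Seeds were sown in silt loam soil and sprayed preemergence with test chemical in a non-phytotoxic solvent mixture containing surfactant; postemergence treatments went onto plants 2 to 18 cm tall (1- to 4-leaf stage) grown in peat moss/vermiculite medium. After 14 to 21 days in a greenhouse, injury was rated visually against controls, 0 (no effect) to 100 (complete control).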

[6] = tested on: foxtail, green (green foxtail Setaria viridis); assay: Test F pre-/postemergence: foxtail, green; settings: Preemergence
In short: as §2

[7] = tested on: goosegrass (Eleusine indica); assay: Test F pre-/postemergence: goosegrass; settings: Preemergence
In short: as §2

[8] = tested on: sandbur (southern sandbur, Cenchrus echinatus); assay: Test F pre-/postemergence: sandbur
In short: as §2

[9] = tested on: morningglory (Ipomoea coccinea); assay: Test F pre-/postemergence: morningglory; settings: Preemergence
In short: as §2

[10] = tested on: johnsongrass (Sorghum halepense); assay: Test F pre-/postemergence: johnsongrass; settings: Preemergence
In short: as §2

[11] = Postemergence, 31 g ai/ha, scale 0 to 100 (0 no effect, 100 complete control)
[12] = Postemergence, 62 g ai/ha, scale 0 to 100 (0 no effect, 100 complete control)
[13] = Postemergence, 125 g ai/ha, scale 0 to 100, 0 no effect, 100 complete control
[14] = Postemergence, 16 g ai/ha, scale 0 to 100
[15] = Preemergence, 16 g ai/ha, scale 0 to 100, 0 no effect, 100 complete control
[16] = Preemergence, 31 g ai/ha, scale 0 to 100, 0 no effect, 100 complete control
[17] = Preemergence, 62 g ai/ha, scale 0 to 100
[18] = Preemergence, 125 g ai/ha, scale 0 to 100
[19] = 8 g ai/ha, scale 0 to 100, 0 no effect, 100 complete control
[20] = 16 g ai/ha, scale 0 to 100, 0 no effect, 100 complete control
[21] = 31 g ai/ha, scale 0 to 100, 0 no effect, 100 complete control

With CCOc1nn(-c2ccc(F)cc2)nc1Cc1ccnc(C(F)(F)F)c1 [Compound 196, 4-[[5-ethoxy-2-(4-fluorophenyl)-2H-1,2,3-triazol-4-yl]methyl]-2-(trifluoromethyl)pyridine] the “Plant response rating: Bromegrass, Downy” value [1, 11] was 35, the “Plant response rating: Bromegrass, Downy” value [1, 12] was 50 and the “Plant response rating: Bromegrass, Downy” value [1, 13] was 65. The “Plant response rating, Bromegrass, Downy” value [1, 14] was 15, the “Plant response rating, Bromegrass, Downy” value [1, 15] was 5 and the “Plant response rating, Bromegrass, Downy” value [1, 16] was 15. The “Plant response rating, Bromegrass, Downy” value [1, 17] was 70, the “Plant response rating, Bromegrass, Downy” value [1, 18] was 90 and the “Plant response rating: Pigweed” value [2, 11] was 95. The “Plant response rating: Pigweed” value [2, 12] was 95, the “Plant response rating: Pigweed” value [2, 13] was 100 and the “Plant response rating, Pigweed” value [2, 14] was 85. The “Plant response rating, Pigweed” value [2, 15] was 65, the “Plant response rating, Pigweed” value [2, 16] was 100 and the “Plant response rating, Pigweed” value [2, 17] was 100. For the same compound, the “Plant response rating, Pigweed” value [2, 18] was 100, the “Plant response rating: Buckwheat, Wild” value [3, 11] was 70 and the “Plant response rating: Buckwheat, Wild” value [3, 12] was 90. For the same compound, the “Plant response rating: Buckwheat, Wild” value [3, 13] was 95, the “Plant response rating, Buckwheat, Wild” value [3, 14] was 50 and the “Plant response rating, Buckwheat, Wild” value [3, 15] was 60. The “Plant response rating, Buckwheat, Wild” value [3, 16] was 45, the “Plant response rating, Buckwheat, Wild” value [3, 17] was 70 and the “Plant response rating, Buckwheat, Wild” value [3, 18] was 95. The “Plant response rating: Wheat, Winter” value [4, 11] was 20, the “Plant response rating: Wheat, Winter” value [4, 12] was 25 and the “Plant response rating: Wheat, Winter” value [4, 13] was 35. The “Plant response rating, Wheat, Winter” value [4, 14] was 15, the “Plant response rating, Wheat, Winter” value [4, 15] was 5 and the “Plant response rating, Wheat, Winter” value [4, 16] was 5. For the same compound, the “Plant response rating, Wheat, Winter” value [4, 17] was 10, the “Plant response rating, Wheat, Winter” value [4, 18] was 15 and the “Plant response rating, Foxtail, Giant” value [5, 19] was 5. For the same compound, the “Plant response rating, Foxtail, Giant” value [5, 20] was 85, the “Plant response rating, Foxtail, Giant” value [5, 21] was 98 and the “Plant response rating, Foxtail, Giant” value ([5]; 62 g ai/ha, scale 0 to 100) was 98. The “Plant response rating, Foxtail, Giant” value ([5]; 125 g ai/ha, scale 0 to 100) was 100, the “Plant response rating, Foxtail, Green” value [6, 19] was 75 and the “Plant response rating, Foxtail, Green” value [6, 20] was 75. The “Plant response rating, Foxtail, Green” value [6, 21] was 85, the “Plant response rating, Foxtail, Green” value ([6]; 62 g ai/ha, scale 0 to 100) was 100 and the “Plant response rating, Foxtail, Green” value ([6]; 125 g ai/ha, scale 0 to 100) was 100. For the same compound, the “Plant response rating, Goosegrass” value [7, 19] was 40, the “Plant response rating, Goosegrass” value [7, 20] was 60 and the “Plant response rating, Goosegrass” value [7, 21] was 75. For the same compound, the “Plant response rating, Goosegrass” value ([7]; 62 g ai/ha, scale 0 to 100) was 100, the “Plant response rating, Goosegrass” value ([7]; 125 g ai/ha, scale 0 to 100) was 100 and the “Plant response rating, Sandbur” value ([8]; Postemergence, 8 g ai/ha, scale 0 to 100) was 10. The “Plant response rating, Sandbur” value [8, 14] was 20, the “Plant response rating, Sandbur” value ([8]; Postemergence, 31 g ai/ha, scale 0 to 100) was 20 and the “Plant response rating, Sandbur” value ([8]; Postemergence, 62 g ai/ha, scale 0 to 100) was 30. For the same compound, the “Plant response rating, Sandbur” value ([8]; Postemergence, 125 g ai/ha, scale 0 to 100) was 50, the “Plant response rating, Sandbur” value ([8]; Preemergence, 8 g ai/ha, scale 0 to 100, 0 no effect, 100 complete control) was 5 and the “Plant response rating, Sandbur” value [8, 15] was 5. For the same compound, the “Plant response rating, Sandbur” value [8, 16] was 5, the “Plant response rating, Sandbur” value [8, 18] was 98 and the “Plant response rating, Morningglory” value [9, 19] was 0. The “Plant response rating, Morningglory” value [9, 20] was 30, the “Plant response rating, Morningglory” value [9, 21] was 30 and the “Plant response rating, Morningglory” value ([9]; 125 g ai/ha, scale 0 to 100) was 70. For the same compound, the “Plant response rating, Johnsongrass” value [10, 20] was 65, the “Plant response rating, Johnsongrass” value [10, 21] was 65 and the “Plant response rating, Johnsongrass” value ([10]; 62 g ai/ha, scale 0 to 100) was 95. The “Plant response rating, Johnsongrass” value ([10]; 125 g ai/ha, scale 0 to 100) was 98.
